We go through four molecules from paper PMC8427023, “Bithiazole Inhibitors of Phosphatidylinositol 4‐Kinase (PI4KIIIβ) as Broad‐Spectrum Antivirals Blocking the Replication of SARS‐CoV‐2, Zika Virus, and Human Rhinoviruses” (Chemmedchem, 2021).

One data set concerns the target T1, PI4KIIIβ (Homo sapiens, UniProt Q9UBF8).
T1 construct: Recombinant full length, HIS6 -tagged PI4KIIIβ was purchased from ProQinase; His6; purchased ProQinase (Germany)
As to the kind of experiment: In vitro kinase inhibition assay, PI4KIIIβ. The class given is biochemical. The conditions noted are these: mean of at least three independent experiments; 20 μM ATP.

For data set [1], the system named is SARS-CoV-2. The data set can be described thus: microbe, parasite or virus in culture. The data set is classed as cell-based. The conditions noted are these: for IC50: Severe acute respiratory syndrome coronavirus 2, Calu-3 cells, 72 h incubation, ±SD, NA: Not active, read-out: SARS-CoV-2 Calu-3 IC50 (DYRA protocol).
The subject of data set [2] is SARS-CoV-2. The data set can be described thus: ENTRY-DYRA (entry inhibitor protocol), SARS-CoV-2 in Calu-3 cells. The conditions noted are these: Calu-3 cells treated 1 h before infection, compound and virus removed, 72 h incubation. The class given is cell-based.
Data set [3] can be described thus: Cytotoxicity assay (CellTiter-Glo 2.0) in Calu-3 cells. The data set is classed as cell-based. The settings on record: human, half-maximal cytotoxic concentration, read-out: SARS-CoV-2 Calu-3 CC50. (In ATP-based viability assays light output follows the ATP content of the culture.)
A further data set relates to ZIKV. As to the kind of experiment: Direct yield reduction assay (DYRA), ZIKV in Huh7 cells. The data set is classed as cell-based, Zika virus. The settings on record: for IC50: Zika virus, read-out: ZIKV Huh7 IC50.
Data set [4] has as its system hRV2. As to the kind of experiment: Multicycle CPE reduction antiviral assay, hRV2 in HeLa cells. The data set is classed as cell-based, human rhinovirus 2. The settings on record: 3 days.
The test system of data set [5] is hRV14. The data set can be described thus: Multicycle CPE reduction antiviral assay, hRV14 in HeLa cells. The class given is cell-based, human rhinovirus 14. The conditions noted are these: 3 days.
A further data set can be described thus: physchem. The class given is physicochemical. The settings on record: pH 7.4, aqueous buffer.
The nature of data set [6]: in vitro. The class given is in vitro ADME. The conditions noted are these: PAMPA, pH 7.4; for Membrane Retention (% MR): 5 h, 500 μM. The protocol:
(§1) appropriate calibration curve. For each compound, the determination was performed in three […]
(§2) Parallel Artificial Membrane Permeability Assay (PAMPA)
(§3) Each ‘donor solution’ was prepared from a solution of each compound (DMSO, 1 mM) diluted with 25 mM Phosphate Buffered Saline (PBS) at pH 7.4, up to a final concentration of 500 μM. The donor wells were filled with 150 µL of ‘donor solution’. The filters were coated with 5 μL of a solution of phosphatidylcholine in dodecane 1% (w/v) and the lower wells filled with 300 µL of ‘acceptor solution’ (50% v/v DMSO and PBS). The sandwich plate was assembled and incubated for 5 hours at room temperature under gentle shaking. At the end of the incubation time, the sandwich was disassembled and the amount of compound in the donor and acceptor wells was measured by LC-UV-MS. For each compound, the determination was performed in three independent experiments.
Apparent permeability (Papp) and membrane retention (%MR) were calculated according to the equations reported in reference. […]
On the technique in general: In PAMPA a lipid-coated filter parts donor from acceptor wells.

Data set [7] is classed as in vitro ADME. The conditions noted are these: human, 24 h, 100 µM, pH 7.4. The protocol: appropriate calibration curve. […]
(§4) Stability in Human Plasma
(§5) Pooled human plasma (1.5 mL, […]), PBS (1.4 mL, pH 7.4, 25 mM) and tested compound dissolved in DMSO (100 µL, 3.0 mM) were mixed in a test tube that was incubated at 37 […]
mixed with 600 µL of cold acetonitrile and centrifuged at 5000 rpm for 15 min [3]. The supernatant was removed and analyzed by LC-UV-MS. For each compound, the determination was performed in three independent experiments. […]

Data set [8] can be described thus: Stability in medium/serum solution. The class given is in vitro ADME. The settings on record: EMEM, 2 mM L-glut, 1 % FBS, 1 % Pen/Strep, 37 °C. The protocol:
as §1, §2, §3
Apparent permeability (Papp) and membrane retention (%MR) were calculated according to the equations reported in reference.
as §4, §5
mixed with 600 µL of cold acetonitrile and centrifuged at 5000 rpm for 15 min [3]. The supernatant was removed and analyzed by LC-UV-MS. For each compound, the determination was performed in three independent experiments.
Stability in Medium/Serum solution
The stability of compounds under the experimental conditions used in the ENTRY-DYRA antiviral assay was evaluated. Each tested compound dissolved din DMSO (1.0 mL, 400 µM) was mixed in a test tube with EMEM, 2 mM L-glut, 1% FBS, 1% Pen/Strep solution (final concentration of the compound of 200 µM) and then incubated at 37 °C. At set time points (0.0, 0.08, 0.25, 0.50, 1.0, 3.0, and 24.0 h), samples of 100 µL were taken, mixed with 400 µL of cold acetonitrile and centrifuged at 5000 rpm for 15 min. The supernatant was removed and analyzed by UV/LC-MS. For each compound, the determination was performed in three independent experiments.

Data set [9] is described as follows: Stability in medium/serum solution. The settings on record: EMEM, 2 mM L-glut, 1 % FBS, 1 % Pen/Strep, 37 °C. The data set is classed as in vitro ADME. This is another data set of the same source.
Data set [10] is described as follows: in vitro. The settings on record: human.
Data set [11] can be described thus: in vitro. The conditions noted are these: human. The source holds these as a separate data set.
Data set [12] is described as follows: in vitro. The conditions noted are these: human. This is another data set of the same source.
A short description of data set [13]: in vitro. The settings on record: human. The source holds these as a separate data set.
For a further data set, the system named is HeLa. The conditions noted are these: read-out: HeLa CC50; HeLa cells.
Data set [14] in a line: Cytotoxicity assay (CellTiter-Glo 2.0) in Huh7 cells. The settings on record: human.
Data set [15] has as its system hRV2. Set-up: method as in PMID 31729878. The conditions noted are these: HeLa cells; cited from earlier work.
In data set [16] the test system is hRV14. Set-up: method as in PMID 31729878. The settings on record: HeLa cells; cited from earlier work.
For a further data set, the system named is Enterovirus-A71 (EV-A71). More on the design: method as in PMID 28122178, PMID 31729878. The settings on record: at low micromolar concentration; cited from earlier work.
The test system of the next data set is coxsackievirus B3 (CVB3). Set-up: method as in PMID 28122178, PMID 31729878. The conditions noted are these: at low micromolar concentration; cited from earlier work.
The conditions of data set [17]: pH 7.4; cited from earlier work.
For data set [18] the following is noted: PAMPA; cited from earlier work.
For data set [19] the following is noted: C57BL/6 mice, up to 180 mg/kg; cited from earlier work.

≈ marks a conversion by molar mass, not a printed value. Where two headings read alike, the source gives them in different places. Marks after values point to notes of the source that are not given here. Where only a bound is given, the exact number is not on record here.

T1 sequence (Q9UBF8 whole entry): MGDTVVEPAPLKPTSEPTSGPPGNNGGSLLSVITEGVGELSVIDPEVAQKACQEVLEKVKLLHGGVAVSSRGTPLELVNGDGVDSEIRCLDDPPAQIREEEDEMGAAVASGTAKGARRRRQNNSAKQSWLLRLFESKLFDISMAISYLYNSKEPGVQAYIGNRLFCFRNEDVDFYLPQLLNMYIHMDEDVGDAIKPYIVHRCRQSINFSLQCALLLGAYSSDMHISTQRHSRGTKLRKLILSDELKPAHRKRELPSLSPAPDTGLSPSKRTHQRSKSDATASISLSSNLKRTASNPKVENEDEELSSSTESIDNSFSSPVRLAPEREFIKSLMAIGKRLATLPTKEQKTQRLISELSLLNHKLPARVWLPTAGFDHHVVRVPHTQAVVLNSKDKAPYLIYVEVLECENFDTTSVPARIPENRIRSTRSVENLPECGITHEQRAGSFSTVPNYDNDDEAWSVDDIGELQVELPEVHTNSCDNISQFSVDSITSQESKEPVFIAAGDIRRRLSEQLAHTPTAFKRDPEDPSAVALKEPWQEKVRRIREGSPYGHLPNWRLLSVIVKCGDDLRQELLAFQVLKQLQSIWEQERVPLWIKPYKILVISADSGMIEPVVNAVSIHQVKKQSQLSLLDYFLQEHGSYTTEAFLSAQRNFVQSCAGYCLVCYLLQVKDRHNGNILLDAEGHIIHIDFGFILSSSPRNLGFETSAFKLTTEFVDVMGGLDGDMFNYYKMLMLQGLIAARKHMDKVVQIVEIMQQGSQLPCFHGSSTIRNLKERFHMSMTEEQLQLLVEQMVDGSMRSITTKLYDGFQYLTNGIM

As usually defined, the IC50 is the point on the concentration scale where inhibition reaches its midpoint. For orientation: solubility means how much of the substance goes into solution per volume. For orientation: Papp means a coefficient for how fast a substance crosses the barrier. What is called viability is the share of living cells, or the viability signal relative to a control. Take `Cc1nc(NC(=O)C(C)(C)C)sc1-c1csc(N(CC(C)(C)O)C2CCCCC2)n1` [4 d]: the IC50 at PI4KIIIβ was 1.97 ± 0.79 µM; with SARS-CoV-2 [1], 1.57 ± 0.38 µM; in the data set on SARS-CoV-2 [2] (Severe acute respiratory syndrome coronavirus 2, read-out: SARS-CoV-2 Calu-3 IC50 (ENTRY-DYRA conditions, in parenthesis) (converted)) it was 0.37 µM; in the data set on ZIKV (Huh-7, Huh7 cells, DYRA, 72 h) it was 0.51 ± 0.05 µM; with hRV2 [4] (Rhinovirus A, HRV2, 72 h), 0.9 ± 0.72 µM; in the data set with hRV14 [5] (Rhinovirus B, HRV14, 72 h), 1.4 ± 1.2 µM. Moreover, the “selectivity index (SI) against SARS-CoV-2 under DYRA conditions” value with SARS-CoV-2 [1] (ratio between CC50 and IC50, Calu-3) is given as 11. The CC50 in data set [3] is 17 µM; in the data set “in vitro [10]”, 4 µM. In addition, the “selectivity index (SI) against ZIKV” value in the data set with ZIKV (ratio between CC50 and IC50, Huh7) stood at 8. This molecule returned a solubility in “physchem” of 0.01 µg/mL (≈ 0.0222 µM). For the same molecule, in the data set “in vitro [6]”, the “Membrane Retention (% MR)” value was 18.05%. The Papp at 5 h, 500 μM in “in vitro [6]” is 117 nm/s. For the same molecule, the “Plasma Stability” value in data set [7] amounted to 92.4%. The “Stability in Medium/Serum 24 h” value in data set [8] is on record as 93.3%. The “Stability in Medium/Serum 48 h” value in data set [9] is 85.7%. For the same molecule, the CC50 at 3 days in “in vitro [11]” stood at 23.8 ± 1.7 µM. The same molecule displayed a viability at 4 h, 50 µM in the data set “in vitro [12]” of 94.8%. The viability in the data set “in vitro [13]” was > 95%.
Take `Cc1nc2c(NCc3cccc(S(C)(=O)=O)c3)nccn2c1-c1ccc(O)c(F)c1` [BF738735, reference compound]: the IC50 in the data set with hRV2 [4] was determined as 0.39 ± 0.36 µM; in the data set with hRV14 [5], 0.59 ± 0.28 µM. For the same molecule, the CC50 in the data set on HeLa is > 30 µM.
Turning to `CC(C)OC(=O)[C@H](C)N[P@](=O)(OC[C@H]1O[C@@H](n2ccc(=O)[nH]c2=O)[C@](C)(F)[C@@H]1O)Oc1ccccc1` [SOF, Sofosbuivir, reference compound], the half-maximal inhibitory concentration (IC50) with ZIKV (Huh-7, 72 h) worked out at 2.7 ± 0.5 µM. The same molecule showed a CC50 in data set [14] of 200 µM.
As to `CC(=O)c1cccc(N(CCO)c2nc(-c3sc(NC(=O)C(C)(C)C)nc3C)cs2)c1` [compound 2], the half-inhibitory concentration (IC50) at PI4KIIIβ is 2.1 ± 0.17 µM; with SARS-CoV-2 [1], 3.95 ± 1.48 µM; with ZIKV (Huh-7, Huh7 cells, DYRA, 72 h) it was 1 ± 0.1 µM; in the data set on hRV2 [15] it was 6.1 µM; in the data set on hRV14 [16], > 9.1 µM. For the same molecule, the “SARS-CoV-2 Calu-3 IC50 (ENTRY-DYRA conditions, in parenthesis)” value in the data set on SARS-CoV-2 [2] was “no effect on the entry phase”. In addition, the CC50 in [3] was 40 µM; in the data set “in vitro [10]”, 16 µM. Besides, the “Membrane Retention (% MR)” value in “in vitro [6]” is listed as < 0.1%. Also, the “Stability in Medium/Serum 24 h” value in data set [8] is 98.5%. Also, the “Stability in Medium/Serum 48 h” value in data set [9] stood at 90.4%. Moreover, the “inhibition of EV-A71 replication in infected cells” value in the data set on Enterovirus-A71 (EV-A71) is listed as “inhibited”. Also, the “inhibition of CVB3 replication in infected cells” value in the data set with coxsackievirus B3 (CVB3) is reported as “inhibited”. This molecule also came in with a CC50 at 3 days in the data set “in vitro [11]” of 17 µM. The same molecule came in with a viability at 4 h, 50 µM in the data set “in vitro [12]” of 94.5%. Further, the “Aqueous Solubility” value in data set [17] is reported as 0.05* μg/mL. Also, the Papp in data set [18] is 1,1 10^−6 cm/sec. Besides, the “tolerability, acute toxicity and histological alterations in key biodistribution organs” value in data set [19] is reported as “well tolerated”.
